Results taken from patent publication US20120021432A1, “Phosphorylated NF45 Biomarkers, Antibodies And Methods Of Using Same” (ArQule, Inc., priority 2010, published 2012).

Columns and labels:
[1] = test system: pNF45 (T388); assay: Effect of ATM and DNA-PK inhibitors on NF45 phosphorylation by β-Lapachone in MIA PaCa-2 cells (Western blot); type: cell-based, human; settings: then β-Lapachone 4 μM 8 hrs in presence of inhibitor
Excerpt: (§1) Immunoprecipitation and Western Blot Analysis: Cell lysate was used for immunoprecipitation using anti-NF90 antibody (#612154, BD Biosciences) or IgG as negative control. Samples then were separated into two equal potions: one blotted with anti-pNF45(T388)(#438) and another for anti-NF45 (K-22) (sc-133817, Santa Cruz Biotechnology). Other antibodies used in this study are pATM(S1981)(# 200-301-400, Rockland), DNA-PKcs (MA-370-P0, Thermo Scientific), ATM(2C1) (GTX70103, GeneTex), DNA-PK (S2506) (ab18192, Abcam), DNA-PK (T2609) (ab18356, Abcam), pCHK2(T68) (#2661, CST), b-actin (#5441, Sigma), g-H2AX (A300-081A, Bethyl).
(§2) β-Lapachone-induced phosphorylation of NF45 is ATM- and DNA-PK-dependent: MIA PaCa-2 cells were pretreated with or without ATM inhibitor KU55933 (10 μM), or DNA-PK inhibitor NU7026 (20 μM), for 1 hr and then treated with β-Lapachone (4 μM) (“Agent A”) for 8 hrs in the presence of inhibitors. Western blot analysis was performed using specific antibodies.

[2] = test system: pNF45 (T388); assay: Western blot analysis for pNF45 (T388) in MIA PaCa-2 cells; type: cell-based, human; settings: for induction of NF45 phosphorylation, pNF45 (T388) / time course of NF45 phosphorylation: MIA Paca-2 cells; for induction of NF45 phosphorylation, pNF45 (T388): various times; for time course of NF45 phosphorylation: up to 24 hrs
Excerpt: Cell culture and chemicals: MIA PaCa-2 cells were maintained in DMEM medium supplemented with 10% FBS. β-Lapachone and (S)-1′-(3-(4-(tert-butyl)phenoxy)-2-hydroxypropyl)-2H-spiro[naphtho[1,2-b][1,4]oxathiine-3,4′-piperidine]-5,6-dione were synthesized by ArQule, Inc. Doxorubicin, cisplatin, camptohethcin and NU7026 (DNA-PK inhibitor) were purchased from Sigma. KU55933 (ATM inhibitor) was purchased from EMD Chemicals.
Antibody generation: Anti-pNF45 (T388) antibody was generated by Covance (Norwood, Mass.). Briefly, a peptide corresponding to amino acids 383 to 390 (EESME-T-QE) (SEQ ID NO: 2) of NF45 was phosphorylated at threonine 388 in vitro and then conjugated with KHL. Polyclonal antibody was produced from rabbit and passed through affinity column with unphosphorylated peptide and then purified through the column with phosphorylated peptide. Two batches of antibody were obtained: #438 and #439. All the experiments were carried out using #438. Monoclonal antibody are generated by utilizing SEQ ID NO:2 and the hybridoma method known in the art and described herein.
as §1
Knockdown of NF45: Cells were transfected with NF45 On-target plus SMART pool (L-017599-00-0005, Thermo Fisher) or On-Target plus Control siRNA (200 nM, #D-001810-0X, Thermo Fisher) using Oligofectamine (#12252-011, Invitrogen). Cells were used for further examination after 48 hr post transfection.
Threonine Phosphorylation of pNF45 in MIA PaCa-2 Cells is Responsive to β-Lapachone: MIA PaCa-2 cells were treated with or without β-Lapachone (4 μM) (“Agent A”) for 8 hrs and cell lysate was subjected to western blot analysis for the detection of pNF45(T388). […] Samples were then separated into two portions: one for detection of pNF45 (T388) and another for detection of total NF45. C. Cells were transfected with NF45 siRNA or control siRNA and then treated with or without β-Lapachone (4 μM) for 8 hrs.
Time- and concentration-dependent pNF45 (T388) in response to β-Lapachone in MIA PaCa-2 cells: MIA PaCa-2 cells were treated with β-Lapachone (4 μM) (“Agent A”) for various times (A), or for 2 hrs at various concentrations of β-Lapachone (B). Western blot analysis was performed for the detection of pNF45 (T388) and NF45. […] Early induction of pNF45 (T388) was observed within 1 hr and reached peak level between 4 to 8 hrs.
Effect of DNA damage agents on phosphorylation of NF45: To determine whether other DNA damage agents are able to regulate NF45, we treated MIA Paca-2 cells with or without doxorubicin (1 μM), cisplatin (10 μM) or camptothecin (10 μM) for various times. pNF45 (T388) was examined by western blot analysis.

[3] = test system: pNF45 (T388); assay: Immunofluorescence staining of pNF45 (T388) in MIA PaCa-2 cells; type: cell-based, human
Procedure: Immunofluorescent Staining: Cells were seeded in 8-well chamber slides and treated with or without β-Lapachone for various time periods and then fixed with 4% paraformaldhyde. pNF45 was detected using anti-pNF45(T388) antibody, and NF45 using anti-NF45 (K-22) antibody. Slides were mounted using Vectashield Mounting Medium with DAPI (#H-1200, Vector Laboratories) and images were obtained using Zeiss fluorescence microscope.
Immunofluorescence staining pNF45 (T388) in response to β-Lapachone: MIA PaCa-2 cells were plated in 8-well chamber slides and treated with β-Lapachone (4 μM) (“Agent A”) for various times. Cells were fixed and stained for either pNF45 (A) or NF45 (B).

[4] = test system: ATM; assay: Western blot, activation of ATM in β-Lapachone treated cells; type: cell-based, human; settings: MIA PaCa-2 cells, coincides with induction of pNF45 (T388)
Excerpt: as §1, §2

[5] = test system: DNA-PK; assay: Western blot, activation of DNA-PK in β-Lapachone treated cells; type: cell-based, human; settings: MIA PaCa-2 cells, coincides with induction of pNF45 (T388)
Excerpt: as §1, §2

[6] = test system: CHK2; assay: CHK2 phosphorylation in treated cells; type: cell-based
Excerpt: as §1

[7] = test system: g-H2AX; assay: g-H2AX elevation in treated cells; type: cell-based
Excerpt: as §1

[8] = test system: DNA topoisomerase II; settings: cited from earlier work
[9] = test system: human prostate and promyelocytic leukemia cancer cell lines; settings: cited from earlier work
[10] = test system: Human breast and ovary carcinoma; settings: cited from earlier work
[11] = test system: human ovarian cancer, human prostate cancer, human breast cancer, human multiple myeloma; settings: single agent, xenotransplant mouse models; cited from earlier work
[12] = cited from earlier work
[13] = test system: cancer cells from a variety of tissues; normal cells from these tissues; settings: cited from earlier work

With `O=c1cc(-c2cccc3c2Sc2ccccc2S3)oc(N2CCOCC2)c1` [KU55933] the “effect of ATM inhibitor on β-Lapachone-induced phosphorylation of NF45” value ([1]; inhibitor 10 μM pretreated 1 hr) was “phosphorylation of NF45 induced by β-Lapachone is ATM and DNA-PK dependent”.
For `O=c1cc(N2CCOCC2)oc2c1ccc1ccccc12` [NU7026], the “effect of DNA-PK inhibitor on β-Lapachone-induced phosphorylation of NF45” value ([1]; inhibitor 20 μM pretreated 1 hr) was “phosphorylation of NF45 induced by β-Lapachone is ATM and DNA-PK dependent”.
In the case of `N.N.[Cl][Pt][Cl]` [cisplatin], the “induction of NF45 phosphorylation, pNF45 (T388)” value ([2]; 10 μM) is reported as “not cisplatin induced NF45 phosphorylation”.
With `CC[C@@]1(O)C(=O)OCc2c1cc1n(c2=O)Cc2cc3ccccc3nc2-1` [camptothecin] the “time course of NF45 phosphorylation” value ([2]; 10 μM) was “steadily increased up to 24 hrs” and the “induction of NF45 phosphorylation, pNF45 (T388)” value ([2]; 10 μM) was “induced NF45 phosphorylation”.
In the case of `CC1(C)CCC2=C(O1)c1ccccc1C(=O)C2=O` [β-Lapachone, 3,4-dihydro-2,2-dimethyl-2H-naphtho[1,2-b]pyran-5,6-dione], the “time of early induction of pNF45 (T388)” value ([2]; MIA PaCa-2 cells, 4 μM) is reported as ≤ 1 hr, the “time and concentration dependence of pNF45 (T388) induction” value ([2]; MIA PaCa-2 cells, 4 μM for various times, or 2 hrs at various concentrations) is reported as “time- and concentration-dependent manner” and the “induction of pNF45 (T388)” value ([2]; MIA PaCa-2 cells, 4 μM, 8 hrs) is reported as “induced pNF45 (T388)”. For the same compound, the “cellular location of induced pNF45 (T388)” value ([3]; MIA PaCa-2 cells, 4 μM) was “primarily located in nuclei”, the “time of induction of pNF45 (T388), immunofluorescence” value ([3]; MIA PaCa-2 cells, 4 μM, various times) was ≤ 2 hrs and the “pNF45 (T388) levels, immunofluorescence staining” value ([3]; β-Lapachone treated cells, pNF45 (T388) antibody) was “significant increase”. For the same compound, the “activation of ATM” value [4] was “activation”, the “activation of DNA-PK” value [5] was “activation” and the CHK2 phosphorylation [6] was “CHK2 phosphorylation”. The g-H2AX level [7] was “g-H2AX elevation”, the “inhibition of DNA topoisomerase II” value [8] was “inhibits DNA topoisomerase II” and the “induction of cell death” value [9] was “induces cell death with characteristics of apoptosis”. For the same compound, the cytotoxic effect [10] was “showed sensitivity of the cytotoxic effect of β-Lapachone without signs of apoptosis”, the “number of tumors, tumor size, survival time” value [11] was “decrease the number of tumors, reduce tumor size, or increase the survival time, or a combination of these” and the water solubility [12] was “non-water soluble”. For the same compound, the “cell death in cancer cells versus normal cells” value [13] was “induces cell death in cancer cells from a variety of tissues without causing death of normal cells from these tissues”.
In the case of `COc1cccc2c1C(=O)c1c(O)c3c(c(O)c1C2=O)C[C@@](O)(C(=O)CO)C[C@@H]3O[C@H]1C[C@H](N)[C@H](O)[C@H](C)O1` [doxorubicin], the “time course of NF45 phosphorylation” value ([2]; 1 μM) is reported as “steadily increased up to 24 hrs” and the “induction of NF45 phosphorylation, pNF45 (T388)” value ([2]; 1 μM) is reported as “induced NF45 phosphorylation”.
